Here are results for 6 molecules from the NIST ThermoML archive (doi:10.1021/je800658v).

The nature of the data set: activity coefficient (dimensionless); of the first substance listed, at infinite dilution; xn = mol fraction of the nth substance listed. As to conditions: Liquid, inverse gas chromatography, x1 = 0.

± gives the expanded uncertainty stated by the source.

For the molecule `c1ccncc1` [pyridine] + CCCCn1cc[n+](C)c1.F[B-](F)(F)F, the activity coefficient amounted to 1 ± 0.06 (303.35 K), 0.99 ± 0.06 (312.55 K), 0.97 ± 0.06 (322.55 K) and 0.94 ± 0.06 (332.55 K).
Taken in the same sequence, the figures for `ClC(Cl)(Cl)Cl` [tetrachloromethane] + CCCCn1cc[n+](C)c1.F[B-](F)(F)F were 5.53 ± 0.33, 5.44 ± 0.33, 5.38 ± 0.32 and 5.2 ± 0.31.
Consider `c1ccsc1` [thiophene] + CCCCn1cc[n+](C)c1.F[B-](F)(F)F, for which the activity coefficient is 1.56 ± 0.09 (303.35 K), 1.52 ± 0.09 (312.55 K), 1.54 ± 0.09 (322.55 K) and 1.49 ± 0.09 (332.55 K).
Regarding `Cc1ccccc1` [toluene] + CCCCn1cc[n+](C)c1.F[B-](F)(F)F, the activity coefficient (303.35 K) stood at 4.37 ± 0.26, the activity coefficient (312.55 K) is 3.96 ± 0.24, the activity coefficient (322.55 K) is 3.97 ± 0.24 and the activity coefficient (332.55 K) worked out at 3.84 ± 0.23.
On to `ClC(Cl)Cl` [trichloromethane] + CCCCn1cc[n+](C)c1.F[B-](F)(F)F, for which the activity coefficient came to 1.04 ± 0.06 (303.35 K), 1.04 ± 0.06 (312.55 K), 1.09 ± 0.07 (322.55 K) and 1.09 ± 0.07 (332.55 K).
With `CCN(CC)CC` [triethylamine] + CCCCn1cc[n+](C)c1.F[B-](F)(F)F, the activity coefficient (303.35 K) was 9.44 ± 0.57, the activity coefficient (312.55 K) is 8.9 ± 0.6, the activity coefficient (322.55 K) amounted to 35.3 ± 2.2 and the activity coefficient (332.55 K) was determined as 59.4 ± 3.6.
